Source: article PMC12015462, “Prioritization of novel anti-infective stilbene derivatives by combining metabolomic data organization and a stringent 3R-infection model in a knowledge graph” (RSC Advances, 2025)
Where two headings read alike, the source gives them in different places.

Experiments:
Type in all cases: cell-based
Mycobacterium marinum [1] = assay: Infection assay: intracellular M. marinum growth (luminescence) in D. discoideum; details: for activity at 0.411523 µM / activity at 1.23457 µM / activity at 3.7037 µM / activity at 11.1111 µM / activity at 33.3333 µM / activity at 100 µM: 72 h; for activity at 0.411523 µM: conc 0.411522634 uM; for activity at 1.23457 µM: conc 1.234567901 uM; for activity at 3.7037 µM: conc 3.703703704 uM; for activity at 11.1111 µM: conc 11.11111111 uM; for activity at 33.3333 µM: conc 33.33333333 uM; for activity at 100 µM: conc 100 uM; for IC50: interpolated between the two concentrations closest to residual growth 0.5, top concentration 100 μM
From the text: (§1) Since fractions were not weighed individually, the injection mass was used to calculate an average mass per fraction and thus a nominal mass concentration.

Dictyostelium discoideum = assay: Infection assay: growth of the host amoeba D. discoideum (fluorescence) in infection; details: for activity at 0.411523 µM / activity at 1.23457 µM / activity at 3.7037 µM / activity at 11.1111 µM / activity at 33.3333 µM / activity at 100 µM: 72 h; for IC50: read-out: IC50 Dd in infection (μM)
From the text: as §1

Mycobacterium marinum [2] = assay: Anti-biotic assay: M. marinum growth in broth (luminescence); details: for activity at 0.411523 µM / activity at 1.23457 µM / activity at 3.7037 µM / activity at 11.1111 µM / activity at 33.3333 µM / activity at 100 µM: 72 h; for IC50: read-out: IC50 Mm in broth (μM)
Description: as §1
Plating bacteria and compounds or fractions was performed analogously to the infection assay described above. Bacteria growth was monitored with the Agilent BioTek H1 plate reader by recording luminescence at 32 °C.
The prepared plates were sealed and stored at 4 °C overnight. On the day of the experiment, nine 10 cm Petri dishes were infected (as described before) and grouped into three pools.

[3] = vehicle control set at 1, read-out: mean normalized residual growth, Mm in infection
[4] = vehicle control set at 1, read-out: median normalized residual growth, Mm in infection
[5] = read-out: mean normalized residual growth, Dd in infection
[6] = read-out: median normalized residual growth, Dd in infection
[7] = read-out: mean (normalised M. marinum growth, Mm in broth)
[8] = read-out: median (normalised M. marinum growth, Mm in broth)

| Compound | activity at 0.411523 µM (Mycobacterium marinum [1]; [3]) [%] | activity at 0.411523 µM (Mycobacterium marinum [1]; [4]) [%] | activity at 1.23457 µM (Mycobacterium marinum [1]; [3]) [%] | activity at 1.23457 µM (Mycobacterium marinum [1]; [4]) [%] | activity at 3.7037 µM (Mycobacterium marinum [1]; [3]) [%] | activity at 3.7037 µM (Mycobacterium marinum [1]; [4]) [%] | activity at 11.1111 µM (Mycobacterium marinum [1]; [3]) [%] | activity at 11.1111 µM (Mycobacterium marinum [1]; [4]) [%] | activity at 33.3333 µM (Mycobacterium marinum [1]; [3]) [%] | activity at 33.3333 µM (Mycobacterium marinum [1]; [4]) [%] | activity at 100 µM (Mycobacterium marinum [1]; [3]) [%] | activity at 100 µM (Mycobacterium marinum [1]; [4]) [%] | IC50 (Mycobacterium marinum [1]) [µM] | activity at 0.411523 µM (Dictyostelium discoideum; [5]) [%] | activity at 1.23457 µM (Dictyostelium discoideum; [5]) [%] | activity at 3.7037 µM (Dictyostelium discoideum; [5]) [%] | activity at 11.1111 µM (Dictyostelium discoideum; [5]) [%] | activity at 33.3333 µM (Dictyostelium discoideum; [5]) [%] | activity at 100 µM (Dictyostelium discoideum; [5]) [%] | activity at 0.411523 µM (Dictyostelium discoideum; [6]) [%] | also measured |
| --- | --- | --- | --- | --- | --- | --- | --- | --- | --- | --- | --- | --- | --- | --- | --- | --- | --- | --- | --- | --- | --- |
| Oc1ccc(/C=C/c2cc(O)c3c(c2)O[C@@H](c2ccc(O)cc2)[C@@H]3c2cc(O)c3c(c2)O[C@H](c2ccc(O)cc2)[C@H]3c2cc(O)cc(O)c2)cc1 [Compound 6, (−)-Gnetin E] | 165 | 154 | 202 | 184 | 196 | 172 | 169 | 155 | 98.2 | 95.4 | 46.3 | 49.1 | 66.7 | 119 | 116 | 112 | 114 | 95.3 | 35.6 | 93.6 | activity at 1.23457 µM (Dictyostelium discoideum; [6]): 89.2%; activity at 3.7037 µM (Dictyostelium discoideum; [6]): 92%; activity at 11.1111 µM (Dictyostelium discoideum; [6]): 88.5%; activity at 33.3333 µM (Dictyostelium discoideum; [6]): 86.1%; activity at 100 µM (Dictyostelium discoideum; [6]): 56.8%; IC50 (Dictyostelium discoideum): > 100 µM; activity at 0.411523 µM (Mycobacterium marinum [2]; [7]): 134%; activity at 1.23457 µM (Mycobacterium marinum [2]; [7]): 114%; activity at 3.7037 µM (Mycobacterium marinum [2]; [7]): 113%; activity at 11.1111 µM (Mycobacterium marinum [2]; [7]): 114%; activity at 33.3333 µM (Mycobacterium marinum [2]; [7]): 118%; activity at 100 µM (Mycobacterium marinum [2]; [7]): 110%; activity at 0.411523 µM (Mycobacterium marinum [2]; [8]): 135%; activity at 1.23457 µM (Mycobacterium marinum [2]; [8]): 109%; activity at 3.7037 µM (Mycobacterium marinum [2]; [8]): 114%; activity at 11.1111 µM (Mycobacterium marinum [2]; [8]): 114%; activity at 33.3333 µM (Mycobacterium marinum [2]; [8]): 119%; activity at 100 µM (Mycobacterium marinum [2]; [8]): 110%; IC50 (Mycobacterium marinum [2]): > 100 µM |
| Oc1ccc(/C=C/c2cc(O)c3c(c2)O[C@H](c2ccc(O)cc2)[C@H]3c2cc(O)c3c(c2)O[C@H](c2ccc(O)cc2)[C@H]3c2cc(O)c3c(c2)O[C@H](c2ccc(O)cc2O)[C@H]3c2cc(O)cc(O)c2)cc1 [Compound 7, Macrostachyol A] | 139 | 130 | 158 | 153 | 163 | 154 | 151 | 157 | 80.7 | 76 | 33.4 | 37.5 | 66.7 | 143 | 146 | 119 | 111 | 63 | -92.9 | 91.3 | activity at 1.23457 µM (Dictyostelium discoideum; [6]): 90.3%; activity at 3.7037 µM (Dictyostelium discoideum; [6]): 92%; activity at 11.1111 µM (Dictyostelium discoideum; [6]): 91%; activity at 33.3333 µM (Dictyostelium discoideum; [6]): 82.1%; activity at 100 µM (Dictyostelium discoideum; [6]): 3.73%; IC50 (Dictyostelium discoideum): 66.7 µM; activity at 0.411523 µM (Mycobacterium marinum [2]; [7]): 118%; activity at 1.23457 µM (Mycobacterium marinum [2]; [7]): 118%; activity at 3.7037 µM (Mycobacterium marinum [2]; [7]): 114%; activity at 11.1111 µM (Mycobacterium marinum [2]; [7]): 106%; activity at 33.3333 µM (Mycobacterium marinum [2]; [7]): 112%; activity at 100 µM (Mycobacterium marinum [2]; [7]): 107%; activity at 0.411523 µM (Mycobacterium marinum [2]; [8]): 117%; activity at 1.23457 µM (Mycobacterium marinum [2]; [8]): 123%; activity at 3.7037 µM (Mycobacterium marinum [2]; [8]): 116%; activity at 11.1111 µM (Mycobacterium marinum [2]; [8]): 105%; activity at 33.3333 µM (Mycobacterium marinum [2]; [8]): 114%; activity at 100 µM (Mycobacterium marinum [2]; [8]): 109%; IC50 (Mycobacterium marinum [2]): > 100 µM |
| Oc1ccc(/C=C/c2cc(O)c3c(c2)O[C@H](c2ccc(O)cc2)[C@H]3c2cc(O)c3c(c2)O[C@H](c2ccc(O)cc2)[C@H]3c2cc(O)c3c(c2)O[C@H](c2ccc(O)cc2)[C@H]3c2cc(O)cc(O)c2)cc1 [Compound 8, Gnemonol B] | 132 | 146 | 105 | 94.6 | 127 | 144 | 124 | 128 | 112 | 117 | 61 | 45.3 | 66.7 | 159 | 139 | 139 | 120 | 114 | 51.3 | 92.7 | activity at 1.23457 µM (Dictyostelium discoideum; [6]): 85.7%; activity at 3.7037 µM (Dictyostelium discoideum; [6]): 92.1%; activity at 11.1111 µM (Dictyostelium discoideum; [6]): 88.6%; activity at 33.3333 µM (Dictyostelium discoideum; [6]): 81.5%; activity at 100 µM (Dictyostelium discoideum; [6]): 33.4%; IC50 (Dictyostelium discoideum): 66.7 µM; activity at 0.411523 µM (Mycobacterium marinum [2]; [7]): 118%; activity at 1.23457 µM (Mycobacterium marinum [2]; [7]): 111%; activity at 3.7037 µM (Mycobacterium marinum [2]; [7]): 113%; activity at 11.1111 µM (Mycobacterium marinum [2]; [7]): 119%; activity at 33.3333 µM (Mycobacterium marinum [2]; [7]): 117%; activity at 100 µM (Mycobacterium marinum [2]; [7]): 114%; activity at 0.411523 µM (Mycobacterium marinum [2]; [8]): 125%; activity at 1.23457 µM (Mycobacterium marinum [2]; [8]): 116%; activity at 3.7037 µM (Mycobacterium marinum [2]; [8]): 117%; activity at 11.1111 µM (Mycobacterium marinum [2]; [8]): 115%; activity at 33.3333 µM (Mycobacterium marinum [2]; [8]): 120%; activity at 100 µM (Mycobacterium marinum [2]; [8]): 115%; IC50 (Mycobacterium marinum [2]): > 100 µM |
| Oc1ccc([C@@H]2Oc3cc(O)ccc3[C@H]3[C@H](c4cc(O)cc(O)c4)c4c(O)cc(O)cc4[C@H]32)cc1 [Compound 9, (−)-Gnemontanin G] | 59 | 69.2 | 82.5 | 85.7 | 76.2 | 74.2 | 58.4 | 59.5 | 65.6 | 72.4 | 71.9 | 75.7 | > 100 | 58.2 | 70.8 | 60.4 | 64.9 | 72.5 | 103 | 95.8 | activity at 1.23457 µM (Dictyostelium discoideum; [6]): 97.6%; activity at 3.7037 µM (Dictyostelium discoideum; [6]): 99.6%; activity at 11.1111 µM (Dictyostelium discoideum; [6]): 93.8%; activity at 33.3333 µM (Dictyostelium discoideum; [6]): 91.4%; activity at 100 µM (Dictyostelium discoideum; [6]): 91.6%; IC50 (Dictyostelium discoideum): > 100 µM; activity at 0.411523 µM (Mycobacterium marinum [2]; [7]): 87.4%; activity at 1.23457 µM (Mycobacterium marinum [2]; [7]): 93.9%; activity at 3.7037 µM (Mycobacterium marinum [2]; [7]): 92.7%; activity at 11.1111 µM (Mycobacterium marinum [2]; [7]): 81.3%; activity at 33.3333 µM (Mycobacterium marinum [2]; [7]): 89.2%; activity at 100 µM (Mycobacterium marinum [2]; [7]): 92.6%; activity at 0.411523 µM (Mycobacterium marinum [2]; [8]): 86.6%; activity at 1.23457 µM (Mycobacterium marinum [2]; [8]): 96.7%; activity at 3.7037 µM (Mycobacterium marinum [2]; [8]): 92.3%; activity at 11.1111 µM (Mycobacterium marinum [2]; [8]): 78.6%; activity at 33.3333 µM (Mycobacterium marinum [2]; [8]): 87.9%; activity at 100 µM (Mycobacterium marinum [2]; [8]): 91.7% |
